# Test results reported in patent publication US9394297B2, “Amides as pim inhibitors” (AMGEN INC., priority 2012, dated 2016).
# Where a name gives a salt, the structure may show the parent alone.
# Legend:
# Pim-2 = Pim-2 (Homo sapiens (Human), UniProt Q9P1W9); assay: Pim-Mn enzyme assay (HTRF, 384-well), Pim-2; assay type: biochemical; settings: Pim-2 enzyme 0.5 pM, ATP 1.5 μM, BAD (S112) 0.5 μM, HTRF, 22-point curve; read-out: Pim-2-Mn IC50 IP
# Pim-1 = Pim-1 (Homo sapiens (Human), UniProt P11309); assay: Pim-Mn enzyme assay (HTRF, 384-well), Pim-1; assay type: biochemical; settings: Pim-1 enzyme 5 pM, ATP 1.5 μM, BAD (S112) 0.5 μM, HTRF, 22-point curve; read-out: Pim-1-Mn IC50 IP
# Pim-1, sequence (P11309 whole entry): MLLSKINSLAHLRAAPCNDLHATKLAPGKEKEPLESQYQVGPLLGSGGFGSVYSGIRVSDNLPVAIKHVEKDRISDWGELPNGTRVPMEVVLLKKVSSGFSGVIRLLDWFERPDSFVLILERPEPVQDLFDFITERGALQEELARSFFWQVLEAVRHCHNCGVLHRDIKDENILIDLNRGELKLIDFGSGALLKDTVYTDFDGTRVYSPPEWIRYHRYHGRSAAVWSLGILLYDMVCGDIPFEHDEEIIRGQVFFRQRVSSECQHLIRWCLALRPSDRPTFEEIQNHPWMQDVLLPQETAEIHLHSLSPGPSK
# Pim-2, sequence (Q9P1W9 whole entry): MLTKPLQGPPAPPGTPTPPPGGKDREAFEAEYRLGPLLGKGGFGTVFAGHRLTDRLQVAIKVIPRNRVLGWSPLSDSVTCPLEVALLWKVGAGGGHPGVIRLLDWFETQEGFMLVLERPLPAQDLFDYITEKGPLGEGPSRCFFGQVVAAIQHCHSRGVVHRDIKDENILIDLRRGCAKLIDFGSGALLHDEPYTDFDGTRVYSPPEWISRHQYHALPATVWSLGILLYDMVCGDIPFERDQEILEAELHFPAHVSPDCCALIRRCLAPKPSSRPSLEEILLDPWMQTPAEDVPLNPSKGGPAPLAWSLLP
IC50 (Pim-2),IC50 (Pim-1),Compound
2 nM,4 nM,"Cc1nc2cccc(-c3cc4c([nH]3)[C@@H](C)NC4=O)c2nc1N[C@H]1CCC[C@@H](NS(C)(=O)=O)C1 [Example 489, N-((1R,3S)-3-((3-methyl-8-((6R)-6-methyl-4-oxo-1,4,5,6-tetrahydropyrrolo[3,4-b]pyrrol-2-yl)-2-quinoxalinyl)amino)cyclohexyl)methanesulfonamide]"
0.8 nM,0.8 nM,"CC[C@H]1NC(=O)c2cc(-c3cccc4c(=O)n(C)c(NC(C)(C)C)nc34)[nH]c21 [Example 505, (R)-2-(tert-butylamino)-8-(6-ethyl-4-oxo-1,4,5,6-tetrahydropyrrolo[3,4-b]pyrrol-2-yl)-3-methylquinazolin-4(3H)-one]"
34.5 nM,25.9 nM,"CC(=O)N1CC[C@@H](Nc2nc3c(-c4cc5c([nH]4)CCNC5=O)cccc3nc2C)C1 [Example 64, 2-(3-(((3R)-1-acetyl-3-pyrrolidinyl)amino)-2-methyl-5-quinoxalinyl)-1,5,6,7-tetrahydro-4H-pyrrolo[3,2-c]pyridin-4-one]"
19.1 nM,39 nM,"Cc1nc2cccc(-c3cc4c([nH]3)C(Cc3ccc(Cl)cc3)CNC4=O)c2nc1N (racemic) [Example 273, rac-2-(3-amino-2-methyl-5-quinoxalinyl)-7-(4-chlorobenzyl)-1,5,6,7-tetrahydro-4H-pyrrolo[3,2-c]pyridin-4-one]"
0.11 nM,0.12 nM,"C[C@H]1NC(=O)c2cc(-c3cccc4c(=O)n(CCCO)c(NC(C)(C)C)nc34)[nH]c21 [Example 500, 2-(tert-butylamino)-3-(3-hydroxypropyl)-8-((6R)-6-methyl-4-oxo-1,4,5,6-tetrahydropyrrolo[3,4-b]pyrrol-2-yl)-4(3H)-quinazolinone]"
26.4 nM,6.1 nM,"Cc1nc2cccc(-c3cc4c([nH]3)CCNC4=O)c2nc1N[C@@H]1CCNC1 [Example 61, 2-(2-methyl-3-((3R)-3-pyrrolidinylamino)-5-quinoxalinyl)-1,5,6,7-tetrahydro-4H-pyrrolo[3,2-c]pyridin-4-one]"
–,1.2 nM,"(R)-2-(3-(cyclopropylamino)-6-fluoro-2-methylquinoxalin-5-yl)-6-methyl-5,6-dihydropyrrolo[3,4-b]pyrrol-4(1H)-one [Example 284]"

# The remaining lines, values behind:
Compound,IC50 (Pim-2),IC50 (Pim-1)
"Cn1c(NC(C)(C)C)nc2c(-c3cc4c([nH]3)[C@@H](CCN)NC4=O)cccc2c1=O [Example 504, (R)-8-(6-(2-aminoethyl)-4-oxo-1,4,5,6-tetrahydropyrrolo[3,4-b]pyrrol-2-yl)-2-(tert-butylamino)-3-methylquinazolin-4(3H)-one]",0.02 nM,0.04 nM
"CC[C@H]1NC(=O)c2cc(-c3cccc4c(=O)n(C5CC5)c(NC(C)(C)C)nc34)[nH]c21 [Example 511, (R)-2-(tert-butylamino)-3-cyclopropyl-8-(6-ethyl-4-oxo-1,4,5,6-tetrahydropyrrolo[3,4-b]pyrrol-2-yl)quinazolin-4(3H)-one]",0.7 nM,1 nM
"Cc1nc2cccc(-c3cc4c([nH]3)[C@@H](C)NC4=O)c2nc1N[C@H]1CCC[C@@H](NC(=O)[C@@H](CO)NC(=O)OC(C)(C)C)C1 [Example 491, tert-butyl((1R)-1-(hydroxymethyl)-2-(((1R,3S)-3-((3-methyl-8-((6R)-6-methyl-4-oxo-1,4,5,6-tetrahydropyrrolo[3,4-b]pyrrol-2-yl)-2-quinoxalinyl)amino)cyclohexyl)amino)-2-oxoethyl)carbamate]",10 nM,20 nM
"Cc1nc2cccc(-c3cc4c([nH]3)CCNC4=O)c2nc1N[C@H]1C[C@H](N)C1 [Example 437, 2-(3-(((1r,3r)-3-aminocyclobutyl)amino)-2-methylquinoxalin-5-yl)-6,7-dihydro-1H-pyrrolo[3,2-c]pyridin-4(5H)-one hydrochloride]",–,0.5 nM
"Cc1nc2cccc(-c3cc4c([nH]3)CCNC4=O)c2nc1OCCC(C)(C)N [Example 269, 2-(3-(3-amino-3-methylbutoxy)-2-methyl-5-quinoxalinyl)-1,5,6,7-tetrahydro-4H-pyrrolo[3,2-c]pyridin-4-one]",65.3 nM,44.5 nM
"Cc1nc2cccc(-c3cc4c([nH]3)CCNC4=O)c2nc1NC(C)(C)C(F)(F)F [Example 254, 2-(2-methyl-3-((1,1,1-trifluoro-2-methylpropan-2-yl)amino)quinoxalin-5-yl)-6,7-dihydro-1H-pyrrolo[3,2-c]pyridin-4(5H)-one]",2.24 nM,2.67 nM
"Cc1nc2cccc(-c3cc4c([nH]3)CCNC4=O)c2nc1NC(C)(C)CS(C)(=O)=O [Example 274, 2-(3-((1,1-dimethyl-2-(methylsulfonyl)ethyl)amino)-2-methyl-5-quinoxalinyl)-1,5,6,7-tetrahydro-4H-pyrrolo[3,2-c]pyridin-4-one]",39.5 nM,44.4 nM
"C[C@H]1NC(=O)c2cc(-c3cccc4c(=O)n(C5CC5)c(NC5(C)CCC5)nc34)[nH]c21 [Example 496, (R)-3-cyclopropyl-8-(6-methyl-4-oxo-1,4,5,6-tetrahydropyrrolo[3,4-b]pyrrol-2-yl)-2-((1-methylcyclobutyl)amino)quinazolin-4(3H)-one]",0.2 nM,0.2 nM
"C[C@H]1NC(=O)c2cc(-c3c(F)ccc4c(=O)n(C5CC5)c(NC5(C)CCC5)nc34)[nH]c21 [Example 498, 3-Cyclopropyl-7-fluoro-2-((1-methylcyclobutyl)amino)-8-((6R)-6-methyl-4-oxo-1,4,5,6-tetrahydropyrrolo[3,4-b]pyrrol-2-yl)-4(3H)-quinazolinone]",–,0.07 nM
"Cc1nc2cccc(-c3cc4c([nH]3)C[C@@H](C)NC4=O)c2nc1NC(C)(C)C [Example 289, (6R)-2-(3-(tert-butylamino)-2-methyl-5-quinoxalinyl)-6-methyl-1,5,6,7-tetrahydro-4H-pyrrolo[3,2-c]pyridin-4-one]",3.37 nM,2.69 nM
"C[C@H]1NC(=O)c2cc(-c3cccc4c(=O)n(C5CCOCC5)c(NC(C)(C)C)nc34)[nH]c21 [Example 514, (R)-2-(tert-butylamino)-8-(6-methyl-4-oxo-1,4,5,6-tetrahydropyrrolo[3,4-b]pyrrol-2-yl)-3-(tetrahydro-2H-pyran-4-yl)quinazolin-4(3H)-one]",0.671 nM,0.287 nM
"Cc1nc2cccc(-c3cc4c([nH]3)CCNC4=O)c2nc1NC1CN(C(=O)OC(C)(C)C)C1 [Example 149, tert-butyl 3-((3-methyl-8-(4-oxo-4,5,6,7-tetrahydro-1H-pyrrolo[3,2-c]pyridin-2-yl)quinoxalin-2-yl)amino)azetidine-1-carboxylate]",33 nM,20 nM
"Cc1nc2cccc(-c3cc4c([nH]3)[C@@H](C)NC4=O)c2nc1N[C@H]1CCC[C@@H](NCC(F)(F)F)C1 [Example 487, (6R)-6-methyl-2-(2-methyl-3-(((1S,3R)-3-((2,2,2-trifluoroethyl)amino)cyclohexyl)amino)-5-quinoxalinyl)-5,6-dihydropyrrolo[3,4-b]pyrrol-4(1H)-one]",–,0.501 nM
"C[C@H]1NC(=O)c2cc(-c3cccc4c(=O)n(C)c(N[C@H]5CCC[C@@H](N)C5)nc34)[nH]c21 (racemic) [Example 506, (rac)-2-(((cis)-3-aminocyclohexyl)amino)-3-methyl-8-((6R)-6-methyl-4-oxo-1,4,5,6-tetrahydropyrrolo[3,4-b]pyrrol-2-yl)-4(3H)-quinazolinone]",0.1 nM,–
